Data published in patent US6559170B1, “Pyridine derivatives having fungicidal activity and processes to produce and use same” (Dow AgroScience LLC, priority 1999, dated 2003).

Key:
[1] = tested on: Leptosphaeria nodorum—LEPTNO; assay: Glume blotch of wheat, 1-day protectant whole plant test; assay type: in vivo; conditions: 100 ppm spray, 1-day protectant (1DP), wheat cultivar Monon
[2] = tested on: Puccinia recondita—PUCCRT; assay: Brown rust of wheat, 1-day protectant whole plant test; assay type: in vivo; conditions: 100 ppm spray, 1-day protectant (1DP), wheat cultivar Monon
[3] = tested on: Erysiphe graminis—ERYSGT; assay: Powdery Mildew of Wheat, 1-day protectant whole plant test; assay type: in vivo; conditions: 100 ppm spray, 1-day protectant (1DP), wheat cultivar Monon
[4] = tested on: Phytophthora infestans—PHYTIN; assay type: in vivo; conditions: 100 ppm spray, 1-day protectant (1DP), tomatoes cultivar Rutgers

Row | SMILES | LEPTNO percent control of the plant disease compared with untreated, inoculated plants [1] [%] | PUCCRT percent control of the plant disease compared with untreated, inoculated plants [2] [%] | ERYSGT percent control of the plant disease compared with untreated, inoculated plants [3] [%] | PHYTIN percent control of the plant disease compared with untreated, inoculated plants [4] [%] | melting point [°C]
1 | CNC(=O)C(=NOC)c1ccccc1COc1ncc(Sc2ccccc2)cc1Cl [Compound 3, 2-Methoxyimino-N-methyl-[2-(3-chloro-5-phenylthio-2-pyridyloxy)methylphenyl]acetamide] | 90 | 98 | 85 | 90 | 84 to 86
2 | CNC(=O)C(=NOC)c1cccc(Cl)c1COc1ccc(Sc2cccc(C)c2)cn1 [Compound 7, 2-Methoxyimino-N-methyl-{3-chloro-2-[5-(3-methylphenyl)thio-2-pyridyloxy]methylphenyl}acetamide] | 98 | 100 | 98 | 100 | 
3 | CNC(=O)C(=NOC)c1cccc(Cl)c1COc1ccc(Sc2cccc(Cl)c2)cn1 [Compound 8, 2-Methoxyimino-N-methyl-{3-chloro-2-[5-(3-chlorophenyl)thio-2-pyridyloxy]methylphenyl}acetamide] | 98 | 98 | 98 | 100 | 
4 | CNC(=O)C(=NOC)c1ccccc1COc1nc(Sc2ccccc2)c(Cl)cc1Cl [Compound 10] | 98 | 100 | 99 | 96 | 
5 | CNC(=O)C(=NOC)c1ccccc1COc1nc(Sc2ccc(Cl)cc2)c(Cl)cc1Cl [Compound 11] | 0 | 89 | 69 | 44 | 
6 | CNC(=O)C(=NOC)c1ccccc1COc1ccc(C(F)(F)F)c(Sc2ccccc2)n1 [Compound 12] | 78 | 100 | 98 | 94 | 
7 | CNC(=O)C(=NOC)c1ccccc1COc1nc(Sc2ccc(C(F)(F)F)cc2)c(Cl)cc1Cl [Compound 13] | 0 | 98 | 98 | 0 | 
8 | CNC(=O)C(=NOC)c1ccccc1COc1cccc(Sc2ccccc2)n1 [Compound 14] | 89 | 100 | 92 | 100 | 
9 | CNC(=O)C(=NOC)c1ccccc1COc1cccc(Sc2ccc(C)cc2)n1 [Compound 15] | 67 | 100 | 92 | 100 | 
10 | CNC(=O)C(=NOC)c1ccccc1COc1cccc(Sc2cccc(C)c2)n1 [Compound 16] | 89 | 100 | 92 | 100 | 
11 | CNC(=O)C(=NOC)c1ccccc1COc1cccc(Sc2ccccc2C)n1 [Compound 17] | 98 | 100 | 92 | 100 | 
12 | CNC(=O)C(=NOC)c1ccccc1COc1cccc(Sc2ccc(Br)cc2)n1 [Compound 19] | 98 | 100 | 98 | 100 | 
13 | CNC(=O)C(=NOC)c1ccccc1COc1cccc(Sc2ccc(Cl)cc2)n1 [Compound 20] | 98 | 100 | 92 | 100 | 
14 | CNC(=O)C(=NOC)c1ccccc1COc1cccc(Sc2ccc3ccccc3c2)n1 [Compound 21] | 98 | 100 | 92 | 100 | 
15 | CNC(=O)C(=NOC)c1ccccc1COc1cccc(Sc2cccc(C(F)(F)F)c2)n1 [Compound 22] | 78 | 98 | 92 | 100 | 
16 | CNC(=O)C(=NOC)c1ccccc1COc1cccc(Sc2cccc(Cl)c2)n1 [Compound 23] | 78 | 100 | 98 | 100 | 
17 | CNC(=O)C(=NOC)c1ccccc1COc1cccc(Sc2ccc(F)cc2)n1 [Compound 24] | 98 | 100 | 85 | 100 | 
18 | CNC(=O)C(=NOC)c1ccccc1COc1cccc(Sc2ccccc2Cl)n1 [Compound 25] | 98 | 100 | 77 | 94 | 
19 | CNC(=O)C(=NOC)c1ccccc1COc1cccc(Sc2c(C)cccc2C)n1 [Compound 26] | 89 | 98 | 69 | 100 | 
20 | CNC(=O)C(=NOC)c1ccccc1COc1cccc(Sc2ccccc2F)n1 [Compound 27] | 98 | 100 | 77 | 100 | 
21 | CNC(=O)C(=NOC)c1ccccc1COc1cccc(Sc2ccc(Cl)cc2C)n1 [Compound 28] | 98 | 100 | 98 | 100 | 
22 | CNC(=O)C(=NOC)c1ccccc1COc1cccc(Sc2ccccc2C(F)(F)F)n1 [Compound 29] | 78 | 100 | 98 | 100 | 
23 | CNC(=O)C(=NOC)c1ccccc1COc1cccc(Sc2cccc(F)c2)n1 [Compound 30] | 98 | 100 | 98 | 100 | 
24 | CNC(=O)C(=NOC)c1ccccc1COc1cccc(Sc2cccc3ccccc23)n1 [Compound 31] | 98 | 100 | 92 | 100 | 
25 | CNC(=O)C(=NOC)c1ccccc1COc1nc(Sc2ccccc2)c(F)cc1F [Compound 32] | 98 | 100 | 77 | 100 | 
26 | CCc1ccccc1Sc1cccc(OCc2ccccc2C(=NOC)C(=O)NC)n1 [Compound 33] | 98 | 100 | 92 | 100 | 
27 | CNC(=O)C(=NOC)c1cccc(F)c1COc1cccc(Sc2ccccc2)n1 [Compound 34] | 98 | 100 | 85 | 94 | 
